PubChem BioAssay (NCI)
Where “and” joins values, the source holds several entries; their conditions need not be identical. Equal values may be shown once.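 Grown in 96-well plates, cells were treated for 48 hours with each compound at five concentrations. Insufficient inhibition: endpoint recorded as highest concentration tested. GI50: concentration for 50% inhibition of growth. The concentration for full growth arrest is given as TGI.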

Legend:
Experiment in all cases: NCI tumour cell line growth inhibition, 48 h
OVCAR-5 ovarian = system: OVCAR-5 ovarian
MDA-MB-231 breast = system: MDA-MB-231 breast
K-562 leukemia = system: K-562 leukemia
SN12C renal = system: SN12C renal
SF-539 CNS = system: SF-539 CNS
SNB-75 CNS = system: SNB-75 CNS
NCI-H460 lung = system: NCI-H460 lung
MCF7 breast = system: MCF7 breast
HL-60(TB) leukemia = system: HL-60(TB) leukemia
UO-31 renal = system: UO-31 renal

CCN(CC)CCCC(C)Nc1ccnc2cc(Oc3ccccc3)ccc12 (stereo not drawn)
GI50 (OVCAR-5 ovarian): 13.1 µM and 13.4 µM
TGI (OVCAR-5 ovarian): 41.3 µM and 44.1 µM
GI50 (MDA-MB-231 breast): 2.05 µM and 3.47 µM
TGI (MDA-MB-231 breast): 8.41 µM and 21.9 µM
GI50 (K-562 leukemia): 1.87 µM and 2.56 µM
TGI (K-562 leukemia): 4.88 µM and 7.92 µM
GI50 (SN12C renal): 9.08 µM and 19.6 µM
TGI (SN12C renal): 39.5 µM and > 100 µM
GI50 (SF-539 CNS): 2.15 µM and 2 µM
TGI (SF-539 CNS): 4.35 µM and 4.28 µM
GI50 (SNB-75 CNS): 2.04 µM and 10.9 µM
TGI (SNB-75 CNS): 15.1 µM and 25.4 µM
GI50 (NCI-H460 lung): 9.21 µM and 12.6 µM
TGI (NCI-H460 lung): 25.9 µM and 78.7 µM
GI50 (MCF7 breast): 8.46 µM and 6.01 µM
TGI (MCF7 breast): 26.5 µM and 19.4 µM
GI50 (HL-60(TB) leukemia): 3.24 µM and 13.1 µM
TGI (HL-60(TB) leukemia): 9.38 µM and 41.6 µM
GI50 (UO-31 renal): 1.3 µM and 11.3 µM
TGI (UO-31 renal): 3.09 µM and 27.7 µM

Fc1ccc2c(c1)C1=NN(c3ccccc3)C(F)C1CO2 (stereo not drawn)
GI50 (OVCAR-5 ovarian): 18.1 µM
TGI (OVCAR-5 ovarian): > 50 µM
GI50 (MDA-MB-231 breast): 5.36 µM
TGI (MDA-MB-231 breast): 13.6 µM
GI50 (K-562 leukemia): 17.6 µM
TGI (K-562 leukemia): > 50 µM
GI50 (SN12C renal): 6.93 µM
TGI (SN12C renal): 14.7 µM
GI50 (SF-539 CNS): 6.62 µM
TGI (SF-539 CNS): 14.9 µM
GI50 (SNB-75 CNS): 9.01 µM
TGI (SNB-75 CNS): 32 µM
GI50 (NCI-H460 lung): 10.5 µM
TGI (NCI-H460 lung): > 50 µM
GI50 (MCF7 breast): 9.41 µM
TGI (MCF7 breast): > 50 µM
GI50 (HL-60(TB) leukemia): 17.9 µM
TGI (HL-60(TB) leukemia): > 50 µM
GI50 (UO-31 renal): 13.3 µM
TGI (UO-31 renal): > 50 µM

C=C1CCC2C3(C)COC(c4ccc(N(C)C)cc4)OC3CCC2(C)C1C/C=C1/C(=O)OCC1O (stereo not drawn)
GI50 (OVCAR-5 ovarian): 7.7 µM
TGI (OVCAR-5 ovarian): 20 µM
GI50 (MDA-MB-231 breast): 7.19 µM
TGI (MDA-MB-231 breast): 20.8 µM
GI50 (K-562 leukemia): 1.22 µM
TGI (K-562 leukemia): 3.37 µM
GI50 (SN12C renal): 2.52 µM
TGI (SN12C renal): 7.98 µM
GI50 (SF-539 CNS): 8.07 µM
TGI (SF-539 CNS): 20.5 µM
GI50 (SNB-75 CNS): 1.94 µM
TGI (SNB-75 CNS): 7.97 µM
GI50 (NCI-H460 lung): 4.1 µM
TGI (NCI-H460 lung): 16.5 µM
GI50 (MCF7 breast): 2.32 µM
TGI (MCF7 breast): 13 µM
GI50 (HL-60(TB) leukemia): 1.36 µM
TGI (HL-60(TB) leukemia): 3.6 µM
GI50 (UO-31 renal): 5.63 µM
TGI (UO-31 renal): 18.9 µM

Cc1ccc(S(=O)(=O)N/N=C/c2c(O)ccc3ccccc23)cc1
TGI (OVCAR-5 ovarian): 88.2 µM
TGI (MDA-MB-231 breast): 70.7 µM
TGI (K-562 leukemia): > 100 µM
TGI (SN12C renal): > 100 µM
TGI (SF-539 CNS): 41.8 µM
TGI (SNB-75 CNS): 74.3 µM
TGI (NCI-H460 lung): > 100 µM
TGI (MCF7 breast): > 100 µM
TGI (HL-60(TB) leukemia): > 100 µM
TGI (UO-31 renal): > 100 µM

Cc1cc(O)c(C(C)C)cc1S(=O)(=O)O (tested in a mixture with another compound)
GI50 (OVCAR-5 ovarian): 0.727 µM
TGI (OVCAR-5 ovarian): 7.54 µM
GI50 (MDA-MB-231 breast): 0.377 µM
TGI (MDA-MB-231 breast): 1.65 µM
GI50 (K-562 leukemia): 0.375 µM
GI50 (SN12C renal): 0.448 µM
GI50 (SF-539 CNS): 0.319 µM
GI50 (SNB-75 CNS): 0.378 µM
GI50 (NCI-H460 lung): 0.347 µM
GI50 (MCF7 breast): 0.325 µM
TGI (MCF7 breast): 1.57 µM
GI50 (HL-60(TB) leukemia): 0.279 µM
GI50 (UO-31 renal): 0.382 µM

C=C(C)C(=O)O[C@H]1CC(=C)[C@@H]2C[C@H](O)[C@](O)(CCl)[C@@H]2[C@H]2OC(=O)C(=C)[C@@H]21
GI50 (OVCAR-5 ovarian): 14.8 µM
TGI (OVCAR-5 ovarian): 29.6 µM
GI50 (MDA-MB-231 breast): 4.28 µM
TGI (MDA-MB-231 breast): 13.6 µM
GI50 (K-562 leukemia): 1.8 µM
TGI (K-562 leukemia): 4.59 µM
GI50 (SN12C renal): 4.09 µM
TGI (SN12C renal): 17.1 µM
GI50 (SF-539 CNS): 1.98 µM
TGI (SF-539 CNS): 4.35 µM
GI50 (SNB-75 CNS): 6.97 µM
TGI (SNB-75 CNS): 20.7 µM
GI50 (NCI-H460 lung): 10.2 µM
TGI (NCI-H460 lung): 28.2 µM
GI50 (MCF7 breast): 1.6 µM
TGI (MCF7 breast): 4.04 µM
GI50 (HL-60(TB) leukemia): 1.97 µM
TGI (HL-60(TB) leukemia): 4.19 µM
GI50 (UO-31 renal): 2.73 µM
TGI (UO-31 renal): 9.27 µM

COc1cc(OC(=O)c2ccccc2)cc2c1C(=O)C=CC2=O
TGI (OVCAR-5 ovarian): 54.5 µM
TGI (MDA-MB-231 breast): 5.48 µM
TGI (K-562 leukemia): 5.36 µM
TGI (SN12C renal): 45 µM
TGI (SF-539 CNS): 41.7 µM
TGI (SNB-75 CNS): 49.2 µM
TGI (NCI-H460 lung): 60.9 µM
TGI (MCF7 breast): 52 µM
TGI (HL-60(TB) leukemia): 3.04 µM
TGI (UO-31 renal): 22.8 µM

N#CC(NC12CC3CC(CC(C3)C1)C2)c1ccc2c(c1)OCO2 (stereo not drawn)
TGI (OVCAR-5 ovarian): > 100 µM
TGI (MDA-MB-231 breast): > 100 µM
TGI (K-562 leukemia): > 100 µM
TGI (SN12C renal): > 100 µM
TGI (SF-539 CNS): > 100 µM
TGI (SNB-75 CNS): > 100 µM
TGI (NCI-H460 lung): > 100 µM
TGI (MCF7 breast): > 100 µM
TGI (HL-60(TB) leukemia): > 100 µM
TGI (UO-31 renal): > 100 µM
